The values below come from US11714094B2, “Composition comprising prostacyclin andor analogues thereof for treatment of acute critically ill patients” (priority 2015, dated 2023).

Series [1] concerns endothelial derived biomarkers. The experiment in a line: Randomized placebo controlled trial of 24 hours i.v. Ilomedin in AMI PCI patients: plasma endothelial derived biomarkers by ELISA. The settings on record: 0.5 ng/kg/min i.v. for 24 hours, baseline to 48 h. The class given is in vivo, human. Here is the method: (§1) Ilomedin® (iloprost, prostacyclin analog) infusion at a dose of 0.5 ng/kg/min compared to placebo in 17 patients with acute myocardial infarction (AMI) undergoing percutanuous coronary intervention (PCI) with stent implantation [Holmvang et al 2012]. Patients randomized to 24 hours active (n=9) or placebo (n=8) therapy were evaluated for hemodynamics, bleeding events and for functional whole blood hemostasis (Multiplate, TEG) and endothelial function in blood sampled before iloprost infusion (baseline), during infusion (1 h, 6 h and 24 h) and 24 hours after ceasing iloprost infusion (48 h). Bleeding was evaluated by GUSTO criteria (severe, moderate, mild, none) and hemostasis was evaluated by Multiplate and TEG according to the manufactures recommendations. Endothelial function was evaluated by measuring plasma levels of endothelial derived biomarkers by commercially available ELISA kits. Biomarkers indicating: Endothelial glycocalyx damage (syndecan-1), endothelial cell damage (thrombomodulin), endothelial cell activation (sE-selectin, ICAM-1) and anticoagulation (protein C) were investigated.
In general terms: ELISA stands for enzyme-linked immunosorbent assay.

The nature of series [2]: Randomized placebo controlled trial of 24 hours i.v. Ilomedin in AMI PCI patients: hemodynamics and bleeding events. The settings on record: 0.5 ng/kg/min i.v. for 24 hours, during or after infusion. It counts as in vivo, human. Here is the method: as §1
In series [3] the test system is endothelial derived biomarkers. The experiment in a line: Randomized placebo controlled trial of i.v. Ilomedin in Whipple surgery patients: plasma endothelial derived biomarkers by ELISA. The class given is in vivo, human. The settings on record: 1 ng/kg/min i.v. Here is the method:
(§2) TEG was performed according to the manufactures recommendations. Endothelial function was evaluated by measuring plasma levels of endothelial derived biomarkers by commercially available ELISA kits. Biomarkers indicating: Endothelial glycocalyx damage (syndecan-1), endothelial cell damage (thrombomodulin) and necrosis (nucleosomes) were investigated.

For series [4] the following is noted: Whipple surgery patients. Here is the method:
The inventors conducted a randomized placebo controlled double blind clinical trial investigating safety and efficacy of intra- and post-operative i.v. Ilomedin® (iloprost, prostacyclin analog) infusion at a dose of 1 ng/kg/min compared to placebo in 16 patients undergoing whipple surgery at Rigshospitalet, a tertiary level teaching University hospital in Copenhagen, Denmark. The inclusion criteria were adults (age […]) undergoing whipple surgery based on surgical indication due to cancer/dysplasia, familial adenomatous polyposis or inflammation/pancreatitis.
Data on demography, co-morbidities, surgical time and 28-day mortality were assessed. Hemodynamics were measured continuously (heart rate (HR), systolic, diastolic and mean arterial pressure (SBT, DBT, MAP)) or at baseline, end of surgery and 6 h and 24 h post-operative (systemic vascular resistance (SVR), stroke volume (SV), central venous pressure (CVP)). The volume and number of units of red blood cells (RBC), plasma and platelet concentrates administered were recorded at the end of surgery, 6 h and 24 h post-operative. Bleeding volume was assessed intra-operative and 6 h and 24 h post-operative. The volume of crystalloids and colloids (only albumin was allowed) was, together with urine output, recorded intra-operative and 6 h and 24 h post-operative.
Blood samples for evaluation of functional whole blood hemostasis (TEG) and endothelial function were collected pre-commencing infusion with study drug (baseline), at the end of surgery (post-op) and 6 h after surgery just before ceasing study drug infusion (6 h). Blood samples for routine biochemistry (hemoglobin, creatinine and lactate) were collected at baseline, post-op and 6 h and 24 h post-operative.

Series [5] deals with functional whole blood hemostasis. The experiment in a line: Randomized placebo controlled trial of 24 hours i.v. Ilomedin in AMI PCI patients: Multiplate, TEG. The class given is in vivo, human. The settings on record: 0.5 ng/kg/min i.v. for 24 hours, during or after infusion.
Experimental: The inventors conducted a randomized placebo controlled double blind clinical trial investigating safety and efficacy of 24 hours i.v. Ilomedin® (iloprost, prostacyclin analog) infusion at a dose of 0.5 ng/kg/min compared to placebo in 17 patients with acute myocardial infarction (AMI) undergoing percutanuous coronary intervention (PCI) with stent implantation [Holmvang et al 2012]. Patients randomized to 24 hours active (n=9) or placebo (n=8) therapy were evaluated for hemodynamics, bleeding events and for functional whole blood hemostasis (Multiplate, TEG) and endothelial function in blood sampled before iloprost infusion (baseline), during infusion (1 h, 6 h and 24 h) and 24 hours after ceasing iloprost infusion (48 h).
The subject of series [6] is endothelial derived biomarkers. The experiment in a line: Healthy volunteer study, 2 hours i.v. Ilomedin infusion: plasma endothelial derived biomarkers by ELISA. It counts as in vivo, human. Conditions: 1 ng/kg/min i.v. for 2 hours. The protocol:
Blood samples for endothelial function were collected at the following time-points: Before the infusion (0 h), after 30 min infusion (30 min), immediately after ceasing the infusion (2 h) and 2 hours after the end of iloprost infusion. Endothelial function was evaluated by measuring plasma levels of endothelial derived biomarkers by commercially available ELISA kits. Biomarkers indicating: Endothelial glycocalyx damage (syndecan-1), endothelial cell damage (thrombomodulin) and endothelial cell anticoagulation (protein C) were investigated. Furthermore, we measured plasma concentration of prostacyclin (FIG. 3).

Series [7] relates to functional whole blood hemostasis. The experiment in a line: Randomized placebo controlled trial of i.v. Ilomedin in Whipple surgery patients: TEG. The class given is in vivo, human. The protocol: as §2
A short description of series [8]: Retrospective study of critically ill ICU patients on CRRT with pre-filter Flolan or heparin. It counts as in vivo, human. Conditions: for 90-day mortality / 365-day mortality / platelet count during CRRT: agent given in the dialysis filter; for 30-day mortality: agent given in the dialysis filter (Flolan 5 ng/kg/min). Here is the method: The inventors conducted a retrospective study of critically ill patients treated or not treated with prostacyclin infusion during their intensive care unit (ICU) stay [Windelov et al 2010]. Ninety-four critically ill patients admitted to the ICU for medical or surgical complications, underwent hemofiltration (continuous renal replacement therapy, CRRT) with or without concomitant Flolan® (epoprostenol sodium, prostacyclin analog) treatment. Flolan® was administered at a low dose (5 ng/kg/min) in the filters to prevent these from clotting and consequently, there was only a minor spill-over of Flolan® to the systemic circulation.

A further series deals with whole blood hemostasis. The experiment in a line: Healthy volunteer study, 2 hours i.v. Flolan infusion: Multiplate and TEG. The class given is in vivo, human. The settings on record: eight healthy male volunteers; 4 ng/kg/min i.v. for 2 hours. The text has this: The term “thrombelastography” or “TEG” refers to a commercially available viscoelastic whole blood hemostasis assay employing citrated or non-anticoagulated blood. The TEG analyzer uses a small whole blood sample in a rotating cup and a pin suspended in the blood by a torsion wire, which is monitored for motion. To speed up the clot formation, a standardized amount of an activator of coagulation (e.g. kaolin, tissue factor) may be added to the cup just before the pin is placed in the cup. The TEG assay is suitable for determining important parameters in the clotting activity (clot initiation time, clot build up dynamics), clot strength (maximum amplitude (MA)) and clot degradation (fibrinolysis). The TEG system's approach to monitoring patient hemostasis is based on the premise that the end result of the hemostatic process is the clot. The clot's physical properties determine whether the patient will have normal hemostasis, or will be at increased risk for hemorrhage or thrombosis. The term “Multiplate” refers to a commercially available impedance aggregometry based whole blood platelet function analyzer employing anti-coagulated blood. The Multiplate analyzer uses a small whole blood sample in a chamber with two pairs of platinum electrodes. Standardized platelet agonists are added to the blood in the chamber to investigate specific platelet activation/signaling pathways. […]

The conditions of series [9]: cited from earlier work.
Series [10] concerns endothelial derived biomarkers. The experiment in a line: Healthy volunteer study, 2 hours i.v. Flolan infusion: plasma endothelial derived biomarkers by ELISA. The class given is in vivo, human. The settings on record: healthy volunteers, 4 ng/kg/min i.v. for 2 hours. Here is the method:
The study was conducted investigating the influence of 2 hours i.v. Flolan® (epoprostenol sodium, prostacyclin analog) infusion at a dose of 4 ng/kg/min in eight healthy male volunteers. Endothelial function was evaluated in the study e.g. by measuring plasma levels of endothelial derived biomarkers by commercially available ELISA kits. Biomarkers indicating: Endothelial glycocalyx damage (syndecan-1), endothelial cell damage (thrombomodulin) or necrosis (nucleosomes, HMGB1), endothelial cell activation (PAI-1) and endothelial cell anticoagulation (protein C, antithrombin) were investigated (FIG. 2).

The test system of series [11] is clot formation and platelet aggregation. The experiment in a line: Functional whole blood hemostatic assays (TEG, Multiplate) under low-dose prostacyclin infusion. The class given is in vivo, human. The text has this: However, as for the vasodilatory effect, the antiaggretory effect is highly dose-dependent [Moncada et al 1976; O'Grady et al 1980]. […] The term “thrombelastography” or “TEG” refers to a commercially available viscoelastic whole blood hemostasis assay employing citrated or non-anticoagulated blood. The TEG analyzer uses a small whole blood sample in a rotating cup and a pin suspended in the blood by a torsion wire, which is monitored for motion. To speed up the clot formation, a standardized amount of an activator of coagulation (e.g. kaolin, tissue factor) may be added to the cup just before the pin is placed in the cup. The TEG assay is suitable for determining important parameters in the clotting activity (clot initiation time, clot build up dynamics), clot strength (maximum amplitude (MA)) and clot degradation (fibrinolysis). The TEG system's approach to monitoring patient hemostasis is based on the premise that the end result of the hemostatic process is the clot. The clot's physical properties determine whether the patient will have normal hemostasis, or will be at increased risk for hemorrhage or thrombosis. The term “Multiplate” refers to a commercially available impedance aggregometry based whole blood platelet function analyzer employing anti-coagulated blood. The Multiplate analyzer uses a small whole blood sample in a chamber with two pairs of platinum electrodes. Standardized platelet agonists are added to the blood in the chamber to investigate specific platelet activation/signaling pathways. The Multiplate assay is based on the attachment of platelets on two platinum electrodes, resulting in an increase of electrical resistance between the electrodes.

Series [12] can be described thus: Healthy volunteer study, 2 hours i.v. Flolan infusion: hemodynamics. It counts as in vivo, human. Conditions: eight healthy male volunteers; 4 ng/kg/min i.v. for 2 hours; any time point. The protocol: The study was conducted investigating the influence of 2 hours i.v. Flolan® (epoprostenol sodium, prostacyclin analog) infusion at a dose of 4 ng/kg/min in eight healthy male volunteers.

Setting [13] is: healthy volunteers, during infusion.
[14] abbreviates: healthy volunteers, 1-4 ng/kg/min infusion.

Read-outs that look alike come from different tables or passages of the source.

Consider `CC#CCC(C)[C@H](O)/C=C/[C@@H]1[C@H]2C/C(=C/CCCC(=O)O)C[C@H]2C[C@H]1O` (stereo partly drawn) [iloprost], for which the sE-selectin result in [1] was “decreased significantly”. In series [2], the “bleeding events vs placebo” value is “no differences” and the hemodynamics vs placebo result is “no differences”. Besides, in [3], the “nucleosome level, change intra- and postoperatively vs placebo” value is “increased significantly more intra- and postoperatively in placebo patients compared to iloprost patients”; the “syndecan-1 level vs placebo” value is on record as “trend towards higher levels of syndecan-1 in placebo patients compared to iloprost patients”; the “thrombomodulin level, change intra- and postoperatively vs placebo” value was “increased significantly more intra- and postoperatively in placebo patients compared to iloprost patients”. In series [4] (1 ng/kg/min i.v.), the “intra- and post-operative RBC received (median)” value stood at 0 mL; the lactate post-operatively entry is “remained unchanged”; the “post-operative hemoglobin (median)” value was 6.7 mmol/L; the “volume of RBC from arrival at the post-operative ward and 6 h post-operatively” value came to 0 mL. The “28-day mortality vs placebo” value in [4] (1 ng/kg/min i.v. intra- and post-operative) is given as “no differences”. Also, in series [5], the “Multiplate or TEG vs placebo” value is on record as “no differences”. In [6] (eight healthy male volunteers, continuing several hours after infusion), the “circulating level of thrombomodulin” value is “marked decrease”. Besides, in series [6] (setting [13]), the “circulating level of Syndecan-1” value is “decreased” and the “circulating level of protein C” value is reported as “decreased”. In series [7] (Whipple surgery patients, 1 ng/kg/min i.v.), the “TEG maximum clot firmness intra-operatively” value is “remained stable”.

`CCCCC[C@H](O)/C=C/[C@@H]1[C@H]2C/C(=C/CCCC(=O)O)O[C@H]2C[C@H]1O` [prostacyclin]: in series [8], the 90-day mortality is on record as 34%, the 365-day mortality stood at 38%, the “platelet count during CRRT” value was “increased” and the 30-day mortality stood at 21%. Besides, in the series on whole blood hemostasis, the “Multiplate and TEG values, baseline vs later” value is reported as “no changes”. Further, the systolic blood pressure result in series [9] (acute critically ill patients, doses from 5-10 ng/kg/min) is “lowers systolic blood pressure dose-dependently”. In addition, in series [9] (setting [14]), the blood pressure result was “did not influence”. Also, the diastolic blood pressure entry in series [9] (human volunteers, dose of 8 ng/kg/min) is listed as “reduced”. In series [9] (human volunteers, doses less than 8 ng/kg/min), the “effect on systolic or diastolic blood pressure” value is recorded as “no significant effect”. The “effect on systolic blood pressure” value in [9] (human volunteers, doses up to 16 ng/kg/min) was “no effect”. The hemodynamic effects entry in [9] (low-dose infusion up to 4 ng/kg/min, healthy volunteers and acute critically ill patients) is listed as “negligible”. In series [9] (patients with traumatic brain injury, AMI treated by PCI, septic shock or CABG surgery, 0.5-2 ng/kg/min infusion), the blood pressure result is “did not negatively influence”. In series [10], the “circulating level of PAI-1” value was “declined” and the “circulating level of antithrombin” value was “decreased”. For the same compound, the “circulating level of thrombomodulin” value in series [10] (continuing several hours after infusion) is reported as “marked decrease”. Also, the “circulating level of protein C” value in series [10] (hours after ceasing infusion) is given as “decreased”. Moreover, the “clot formation and platelet aggregation” value in [11] (acute critically ill patients (major abdominal surgery, PCI after AMI), 0.5-1 ng/kg/min infusion) is listed as “neither influenced clot formation nor platelet aggregation”. Further, the “hemostasis, bleeding or adverse events related to impaired hemostasis” value in series [11] (acute critically ill patients, low-dose infusion 0.5-1 ng/kg/min) was “does not compromise hemostasis or induce bleeding or adverse events related to impaired hemostasis”. For the same compound, the platelet aggregation result in series [11] (general conclusion, dose dependence) is listed as “dose-dependently inhibits”. For the same compound, the “hemostasis, bleeding or adverse events related to impaired hemostasis” value in [11] (healthy volunteers and acute critically ill patients, low-dose infusion up to 4 ng/kg/min) is on record as “does not compromise hemostasis or induce bleeding or adverse events related to impaired hemostasis”. Moreover, the “clot formation and platelet aggregation” value in [11] (setting [14]) is recorded as “neither influenced clot formation nor platelet aggregation”. Further, the “anti-thrombotic effects (TEG, Multiplate)” value in [11] (low-dose infusion) was “no measurable anti-thrombotic effects”. In addition, the clot formation entry in series [7] (patients undergoing major abdominal surgery, intra- and post-operative infusion) was “improved”. Also, in series [12], the “blood pressure vs baseline” value is “did not change” and the “heart rate vs baseline” value is on record as “did not change”.

Consider heparin, for which, in series [8], the 90-day mortality is 53%, the 365-day mortality turned out to be 57%, the “platelet count during CRRT” value is reported as “declined” and the 30-day mortality stood at 39%.
